Measurements published in patent US20240216357A1 (SICHUAN HUIYU PHARMACEUTICAL CO., LTD., priority 2021, published 2024).
Structures can show the parent of a compound that is named as a salt. Where two headings read alike, the source gives them in different places.

Assays:
[1] = test system: NCI-H1417 cells; assay: In vitro cell proliferation detection (CellTiter-Glo, 7 days); format: cell-based
[2] = target: LSD1 (Homo sapiens (Human), UniProt O60341); assay: LSD1 enzyme activity detection (HTRF); format: biochemical; conditions: read-out: Inhibition of enzymatic activity of LSD1 IC50
[3] = Homo sapiens, 168 h, NCI-H1417 cells, 7 days, CellTiter-Glo, read-out: NCI-H1417 proliferation inhibition IC50

SMILES | IC50 ([2]; HTRF, H3K4me1 substrate) [nM] | other results
Cc1ccc(-c2c(-c3ccc(C#N)cc3)nc3c(N4CCC[C@@H](N)C4)nccn23)cc1 [Example 5, (R)-4-(8-(3-aminopiperidin-1-yl)-3-(p-tolyl)imidazo[1,2-a]pyrazin-2-yl)benzonitrile hydrochloride] | – | IC50 ([1]; Homo sapiens, NCI-H1417, 168 h, read-out: NCI-H1417 proliferation inhibition IC50(nM)): 165 nM
N#Cc1ccc(-c2nc(N3CCC(N)CC3)cc(O)c2-c2ccc3[nH]nc(Cl)c3c2)cc1F [Example 20, hydrochloride] | – | IC50 [2]: 166 nM
CC(C)(O)Cn1ncc2cc(F)c(-c3c(O)cc(N4CCC(N)CC4)nc3-c3ccc(C#N)c(F)c3)cc21 [Example 28, hydrochloride] | 441 | –
N#Cc1ccc(-c2nc(N3CCC(N)CC3)cc(O)c2-c2ccc3c(c2)OC(F)(F)O3)cc1F [Example 30, 4-(6-(4-aminopiperidin-1-yl)-3-(2,2-difluorobenzo[d][1,3]dioxol-5-yl)-4-hydroxypyridin-2-yl)-2-fluorobenzonitrile hydrochloride] | 213 | –
COc1ccc(-c2c(O)cc(N3CCC(N)CC3)nc2-c2ccc(C#N)c(F)c2)cc1OC [Example 33, 4-(6-(4-aminopiperidin-1-yl)-3-(3,4-dimethoxyphenyl)-4-hydroxypyridin-2-yl)-2-fluorobenzonitrile hydrochloride] | 210 | –
COc1ccc(-c2c(O)cc(NC3CCNCC3)nc2-c2ccc(C#N)c(F)c2)cc1F [Example 40, 2-fluoro-4-(3-(3-fluoro-4-methoxyphenyl)-4-hydroxy-6-(piperidin-4-ylamino)pyridin-2-yl)benzonitrile] | 280 | –
COc1ccc(Nc2c(O)cc(N3CCC(N)CC3)nc2-c2ccc(C#N)c(F)c2)cc1F [Example 64, 4-(6-(4-aminopiperidin-1-yl)-3-(3-fluoro-4-methoxyphenyl)amino)-4-hydroxypyridin-2-yl)-2-flu orobenzonitrile hydrochloride] | – | IC50 [1, 3]: 344 nM
COc1ccc(-c2cnc(N3CC4CCC(C3)C4N)c(C#N)c2-c2ccc(C#N)c(F)c2)cc1O (centres unmarked) [Example 74, 2-(8-amino-3-azabicyclo[3.2.1]octane-3-yl)-4-(4-cyano-3-fluorophenyl)-5-(3-hydroxy-4-methoxyphenyl) nicotinonitrile] | 166 | –
COc1ccc(-c2cnc(N3C4CCCC3CC(N)C4)c(C#N)c2-c2ccc(C#N)c(F)c2)cc1O (centres unmarked) [Example 75, 2-(3-amino-9-azabicyclo [3.3.1]nonan-9-yl)-4-(4-cyano-3-fluorophenyl)-5-(3-hydroxy-4-methoxyphenyl) nicotinonitrile] | 500 | –
COc1ccc(-c2cnc(N3C4CCC3CC(N)C4)c(C#N)c2-c2ccc(C#N)c(F)c2)cc1O (centres unmarked) [Example 81, 2-(3-amino-8-azabicyclo [3.2.1]octane-8-yl)-4-(4-cyano-3-fluorophenyl)-5-(3-hydroxy-4-methoxyphenyl) nicotinonitrile] | 671 | –
Cc1noc2cc(-c3c(OCc4ccccc4)cc(N4C5CCC4CC(N)C5)nc3-c3ccc(C#N)c(F)c3)c(F)cc12 (centres unmarked) [Example 88, 4-(6-(3-amino-8-azabicyclo [3.2.1]octane-8-yl)-4-(benzyloxy)-3-(5-fluoro-3-methylbenzo[d]isoxazol-6-yl)pyridin-2-yl)-2-fluorobenzonitrile] | 566 | –
COc1ccc(-c2cc(N3CCC(N)CC3)nc(-c3ccc(C#N)c(F)c3)c2OC)cc1F [Example 102, 4-(6-(4-aminopiperidin-1-yl)-4-(3-fluoro-4-methoxyphenyl)-3-methoxypyridin-2-yl)-2-fluoroben zonitrile] | 712 | –
COc1cc(-c2c(-c3ccc(C#N)c(F)c3)nc(N3CCC(N)CC3)n3ccnc23)ccc1O [Example 141, 4-(5-(4-aminopiperidin-1-yl)-8-(4-hydroxy-3-methoxyphenyl)imidazolo[1,2-c]pyrimidin-7-yl)-2-fluorobenzonitrile formate] | 224 | –
COc1ccc(-c2c(C3CCC(C#N)CC3)nc(N3C4CCC3CC(N)C4)n3ccnc23)cc1F (centres unmarked) [Example 179, 4-(5-(3-amino-8-azadicyclo [3.2.1]octane-8-yl)-8-(3-fluoro-4-methoxyphenyl)imidazolo[1,2-c]pyrimidin-7-yl) cyclohexane-1-carbonitrile hydrochloride] | 938 | –
COc1ccc(-c2c(-c3cnc(C#N)nc3)nc(N3C4CCC3CC(N)C4)n3ccnc23)cc1F (centres unmarked) [Example 180, 5-(5-(3-amino-8-azabicyclo [3.2.1]octane-8-yl)-8-(3-fluoro-4-methoxyphenyl)imidazolo[1,2-c]pyrimidin-7-yl) pyrimidin-2-carbonitrile] | 77.1 | –
COc1ccc(-c2c(-c3ccc(C#N)c(C#N)c3)nc(N3C4CCC3CC(N)C4)n3ccnc23)cc1F (centres unmarked) [Example 181, 4-(5-(3-amino-8-azabicyclo [3.2.1]octane-8-yl)-8-(3-fluoro-4-methoxyphenyl)imidazolo[1,2-c]pyrimidin-7-yl) phthalonitrile hydrochloride] | 193 | –

SMILES | IC50 ([2]; HTRF, H3K4me1 substrate) [nM] | other results
COc1ccc(-c2c(-c3ccc(C#N)c(C)c3)nc(N3C4CCC3CC(N)C4)n3ccnc23)cc1F (centres unmarked) [Example 184, 4-(5-(3-amino-8-azabicyclo[3.2.1]octane-8-yl)-8-(3-fluoro-4-methoxyphenyl)imidazolo[1,2-c]pyrimidin-7-yl)-2-methylbenzonitrile hydrochloride] | 110 | –
Cc1ccc(-c2c(-c3ccc(C#N)cc3)cc3c(N4CCCCC4)nccn23)cc1 [Example 191, 4-(1-(piperidin-1-yl)-6-(p-tolyl)pyrrolo[1,2-a]pyrazin-7-yl)benzonitrile] | 104 | –
Cc1ccc(-c2c(-c3ccc(C#N)cc3)cc3c(N4CCN(C)CC4)nncn23)cc1 [Example 195, 4-(1-(4-methylpiperazin-1-yl)-6-(p-tolyl)pyrrolo[1,2-d][1,2,4]triazine-7-yl)benzonitrile] | 208 | –
Cc1ccc(-c2c(-c3ccc(C#N)cc3)cc3c(N4CCC(N)CC4)ccnn23)cc1 [Example 198, hydrochloride] | 174 | –
Cc1noc2cc(-c3sc(C(=O)N4C5CCC4CC(N)C5)cc3-c3ccc4cn[nH]c4c3)c(F)cc12 (centres unmarked) [Example 205, (3-amino-8-azabicyclo [3.2.1]octane-8-yl) (5-(5-fluoro-3-methylbenzo[d]isoxazol-6-yl)-4-(1H-indazol-6-yl)thiophen-2-yl)methanone hydrochloride] | 902 | –
Cc1noc2cc(-c3sc(C(=O)N4C5CCC4CC(N)C5)cc3-c3cncnc3)c(F)cc12 (centres unmarked) [Example 206, (3-amino-8-azabicyclo [3.2.1]octan-8-yl)(5-(5-fluoro-3-methylbenzo[d]isoxazol-6-yl)-4-(pyrimidine-5-yl)thiophen-2-yl) methanone hydrochloride] | 432 | –
Cc1noc2cc(-c3sc(C(=O)N4C5CCC4CC(N)C5)cc3-c3ccccc3)c(F)cc12 (centres unmarked) [Example 207, (3-amino-8-azabicyclo [3.2.1]octan-8-yl)(5-(5-fluoro-3-methylbenzo[d]isoxazol-6-yl)-4-phenyithio-phene-2-yl)methanone hydrochloride] | 1250 | –
Cc1noc2cc(-c3sc(C(=O)N4C5CCC4CC(N)C5)cc3-c3cccnc3)c(F)cc12 (centres unmarked) [Example 208, (3-amino-8-azabicyclo [3.2.1]octan-8-yl) (5-(5-fluoro-3-methylbenzo [d]isoxazol-6-yl)-4-(pyridin-3-yl)thiophen-2-yl) methanone hydrochloride] | 641 | –
Cc1noc2cc(-c3sc(C(=O)N4C5CCC4CC(N)C5)cc3-c3ccccn3)c(F)cc12 (centres unmarked) [Example 210, (3-amino-8-azabicyclo [3.2.1]octan-8-yl)(5-(5-fluoro-3-methylbenzo[d]isoxazol-6-yl)-4-(pyridin-2-yl)thiophen-2-yl)methanone] | 5520 | –
Cc1noc2cc(-c3sc(C(=O)N4C5CCC4CC(N)C5)cc3-c3ncccn3)c(F)cc12 (centres unmarked) [Example 211] | 206 | –
Cc1noc2cc(-c3sc(C(=O)N4C5CCC4CC(N)C5)cc3-c3ccc(S(N)(=O)=O)cc3)c(F)cc12 (centres unmarked) [Example 212, 4-(5-(3-amino-8-azabicyclo [3.2.1]octane-8-carbonyl)-2-(5-fluoro-3-methyl-benzo[d]isoxazol-6-yl)thiophen-3-yl)benzene-sulfonamide] | 207 | –
Cc1noc2cc(-c3sc(C(=O)N4C5CCC4CC(N)C5)cc3-c3ccc(S(C)(=O)=O)cc3)c(F)cc12 (centres unmarked) [Example 213, (3-amino-8-azabicyclo [3.2.1]octan-8-yl) (5-(5-fluoro-3-methylbenzo [d]isoxazol-6-yl)-4-(4-(methyldimethylsulfoxide-16-sulfonyl)phenyl)thio-phen-2-yl)methanone] | 36.7 | –
CS(=O)(=O)N1CCN(c2cc(CCCN[C@@H]3C[C@H]3c3ccc(F)cc3)nn(-c3ccc(C#N)cc3)c2=O)CC1 [Example 260, 4-(3-(3-((1R,2S)-2-(4-fluorophenyl)cyclopropyl)amino)-5-(4-(methylsulfonyl)piperazin-1-yl)-6-oxypyridazine-1 (6H)-yl)benzonitrile formate] | – | IC50 ([1]; NCI-H1417 cells, 7 days, CellTiter-Glo, read-out: NCI-H1417 proliferation inhibition IC50): 46.1 nM
CS(=O)(=O)N1CCN(c2cc(CN[C@@H]3C[C@H]3c3ccc(F)cc3)nc(-c3ccc(N4CCOCC4)cc3)n2)CC1 [Example 265, (1R,2S)-2-(4-fluorophenyl)-N-((6-(4-(methylsulfonyl)piperazin-1-yl)-2-(4-morpholinophenyl)pyrimidin-4-yl)methyl) cyclopropane-1-amine] | 224 | –
COc1ccc(-c2nc(N3CCC(N)CC3)cc(C#N)c2-c2ccc(C#N)c(F)c2)cc1O [Example 274, 6-(4-aminopiperidin-1-yl)-3-(4-cyano-3-fluorophenyl)-2-(3-hydroxy-4-methoxyphenyl)pyridin-4-carbonitrile] | – | IC50 [1, 3]: > 1000 nM
COc1ccc(-c2cc(C#N)c(N3CCC(N)CC3)nc2-c2ccc(C#N)c(F)c2)cc1O [Example 282, 2-(4-aminopiperidin-1-yl)-6-(4-cyano-3-fluorophenyl)-5-(3-hydroxy-4-methoxyphenyl)nicotinon itrile hydrochloride] | – | IC50 [1, 3]: 136 nM
